From patent US20260138988A1, “Spiropyrrolidine Derived Antiviral Agents” (Enanta Pharmaceuticals, Inc., priority 2021, published 2026)

What follows are compounds tested against SARS-CoV-2 3CL-protease (Severe acute respiratory syndrome coronavirus 2, UniProt P0DTD1) (assay: SARS-CoV-2 3C-Like (3CL) Protease Fluorescence Assay (FRET)). Settings: SARS-CoV-2 3CL-protease 10 nM, test compounds 0-10 μM, duplicate, read-out: IC50.
Assay type: biochemical

Row | Structure (SMILES) | IC50
1 | C[C@H](NC(=O)c1ccc(F)cc1)C(=O)N(C)[C@@H](Cc1ccccc1)C(=O)N1C[C@]2(C[C@H]1C#N)C(=O)Nc1ccccc12 [Example 270] | < 100 nM
2 | CCC(F)(F)C(=O)N[C@@H](C)C(=O)N(C)[C@@H](CC(C)C)C(=O)N1C[C@]2(C[C@H]1C#N)C(=O)Nc1ccccc12 [Example 271] | < 100 nM
3 | CC(C)C[C@@H](C(=O)N1C[C@]2(C[C@H]1C#N)C(=O)Nc1ccccc12)N(C)C(=O)[C@H](C)NC(=O)C1(F)CCC1 [Example 272] | < 100 nM
4 | CC(C)C[C@@H](C(=O)N1C[C@]2(C[C@H]1C#N)C(=O)Nc1ccccc12)N(C)C(=O)[C@H](C)NC(=O)C(C)(F)F [Example 273] | < 100 nM
5 | C[C@H](NC(=O)OCc1ccccc1)C(=O)N(C)[C@@H](Cc1ccccc1)C(=O)N1C[C@]2(C[C@H]1C#N)C(=O)Nc1ccccc12 [Example 274] | < 100 nM
6 | CC(C)C[C@@H](C(=O)N1C[C@]2(C[C@H]1C#N)C(=O)Nc1ccccc12)N(C)C(=O)[C@H](C)NC(=O)C1(F)C(F)(F)C1(F)F [Example 275] | < 100 nM
7 | CC(C)C[C@@H](C(=O)N1C[C@]2(C[C@H]1C#N)C(=O)Nc1ccccc12)N(C)C(=O)[C@H](C)NC(=O)C(F)(F)C(C)C [Example 276] | < 100 nM
8 | CCCC(F)(F)C(=O)N[C@@H](C)C(=O)N(C)[C@@H](CC(C)C)C(=O)N1C[C@]2(C[C@H]1C#N)C(=O)Nc1ccccc12 [Example 277] | < 100 nM
9 | CC(C)C[C@@H](C(=O)N1C[C@]2(C[C@H]1C#N)C(=O)Nc1ccccc12)N(C)C(=O)[C@H](C)NC(=O)C12CC(F)(C1)C2 [Example 278] | < 100 nM
10 | CC(C)C[C@@H](C(=O)N1C[C@]2(C[C@H]1C#N)C(=O)Nc1ccccc12)N(C)C(=O)[C@H](C)NC(=O)C12CC(C(F)(F)F)(C1)C2 [Example 279] | < 100 nM
11 | C[C@H](NC(=O)c1ccc2c(c1)OC(F)(F)O2)C(=O)N(C)[C@@H](CC(C)(C)C)C(=O)N1C[C@]2(C[C@H]1C#N)C(=O)Nc1ccccc12 [Example 280] | < 100 nM
12 | C[C@H](NC(=O)c1cc2ccccc2n1-c1ccccc1)C(=O)N(C)[C@@H](CC(C)(C)C)C(=O)N1C[C@]2(C[C@H]1C#N)C(=O)Nc1ccccc12 [Example 281] | < 100 nM
13 | C[C@H](NC(=O)c1ccccc1-c1ccccc1)C(=O)N(C)[C@@H](CC(C)(C)C)C(=O)N1C[C@]2(C[C@H]1C#N)C(=O)Nc1ccccc12 [Example 282] | < 100 nM
14 | CC(C)C[C@@H](C(=O)N1C[C@]2(C[C@H]1C#N)C(=O)Nc1ccccc12)N(C)C(=O)[C@H](C)NC(=O)C(C)(C)C(F)(F)F [Example 283] | < 100 nM
15 | C[C@H](NC(=O)c1cccc2cc(Cl)ccc12)C(=O)N(C)[C@@H](CC(C)(C)C)C(=O)N1C[C@]2(C[C@H]1C#N)C(=O)Nc1ccccc12 [Example 284] | < 100 nM
16 | CC(C)C[C@@H](C(=O)N1C[C@]2(C[C@H]1C#N)C(=O)Nc1ccccc12)N(C)C(=O)[C@H](C)NC(=O)C(F)(F)C1CC1 [Example 285] | < 100 nM
17 | C[C@H](NC(=O)c1ccc(C(F)(F)F)cc1)C(=O)N(C)[C@@H](CC(C)(C)C)C(=O)N1C[C@]2(C[C@H]1C#N)C(=O)Nc1ccccc12 [Example 286] | < 100 nM
18 | C[C@H](NC(=O)c1ccc(S(C)(=O)=O)cc1)C(=O)N(C)[C@@H](CC(C)(C)C)C(=O)N1C[C@]2(C[C@H]1C#N)C(=O)Nc1ccccc12 [Example 287] | < 100 nM
19 | C[C@H](NC(=O)C(C)(F)F)C(=O)N(C)[C@@H](CC(C)(C)C)C(=O)N1C[C@]2(C[C@H]1C#N)C(=O)Nc1ccccc12 [Example 288] | < 100 nM
20 | C[C@H](NC(=O)c1ccc(-c2ccccc2)cc1)C(=O)N(C)[C@@H](CC(C)(C)C)C(=O)N1C[C@]2(C[C@H]1C#N)C(=O)Nc1ccccc12 [Example 289] | < 100 nM
21 | C[C@H](NC(=O)c1cccc(-c2ccccc2)c1)C(=O)N(C)[C@@H](CC(C)(C)C)C(=O)N1C[C@]2(C[C@H]1C#N)C(=O)Nc1ccccc12 [Example 290] | < 100 nM
22 | CC(C)C[C@@H](C(=O)N1C[C@]2(C[C@H]1C#N)C(=O)Nc1ccccc12)N(C)C(=O)[C@H](C)NC(=O)c1ccc(C(F)(F)F)cc1C(F)(F)F [Example 291] | < 100 nM
23 | C[C@H](NC(=O)c1cc(F)cc2ccccc12)C(=O)N(C)[C@@H](CC(C)(C)C)C(=O)N1C[C@]2(C[C@H]1C#N)C(=O)Nc1ccccc12 [Example 292] | < 100 nM
24 | COc1ccc(C(=O)N[C@@H](C)C(=O)N(C)[C@@H](CC(C)(C)C)C(=O)N2C[C@]3(C[C@H]2C#N)C(=O)Nc2ccccc23)c2ccccc12 [Example 293] | < 100 nM
25 | C[C@H](NC(=O)c1cccc2ccc(Cl)cc12)C(=O)N(C)[C@@H](CC(C)(C)C)C(=O)N1C[C@]2(C[C@H]1C#N)C(=O)Nc1ccccc12 [Example 294] | < 100 nM
26 | CC(C)C[C@@H](C(=O)N1C[C@]2(C[C@H]1C#N)C(=O)Nc1ccccc12)N(C)C(=O)[C@H](C)NC(=O)c1cccc2cc(F)ccc12 [Example 295] | < 100 nM
27 | CC(C)C[C@@H](C(=O)N1C[C@]2(C[C@H]1C#N)C(=O)Nc1ccccc12)N(C)C(=O)[C@H](C)NC(=O)C1(F)CC1 [Example 296] | < 100 nM

Row | Structure (SMILES) | IC50
28 | CC(C)C[C@@H](C(=O)N1C[C@]2(C[C@H]1C#N)C(=O)Nc1ccccc12)N(C)C(=O)[C@H](C)NC(=O)C1(C(F)(F)F)CC1 [Example 297] | < 100 nM
29 | CC(C)C[C@@H](C(=O)N1C[C@]2(C[C@H]1C#N)C(=O)Nc1ccccc12)N(C)C(=O)[C@H](C)NC(=O)C12CC3CC(CC(C3)C1)C2 [Example 298] | < 100 nM
30 | CC(N[C@@H](C)C(=O)N(C)[C@@H](CC(C)(C)C)C(=O)N1C[C@]2(C[C@H]1C#N)C(=O)Nc1ccccc12)C(F)(F)F (stereo partly drawn) [Example 299] | < 100 nM
31 | C[C@H](NC(=O)c1c(F)c(F)c(F)c(F)c1F)C(=O)N(C)[C@@H](CC(C)(C)C)C(=O)N1C[C@]2(C[C@H]1C#N)C(=O)Nc1ccccc12 [Example 300] | < 100 nM
32 | CC(C)C[C@@H](C(=O)N1C[C@]2(C[C@H]1C#N)C(=O)Nc1ccccc12)N(C)C(=O)[C@H](C)NC(=O)c1c(F)c(F)c(F)c(F)c1F [Example 301] | < 100 nM
33 | C[C@H](NC(c1ccc(F)cc1)C(F)(F)F)C(=O)N(C)[C@@H](CC(C)(C)C)C(=O)N1C[C@]2(C[C@H]1C#N)C(=O)Nc1ccccc12 (stereo partly drawn) [Example 302] | < 100 nM
34 | CC(C)(C)C[C@H](NC(=O)[C@H](CC1CC1)NC(=O)c1ccc(C2CCCCC2)cc1)C(=O)N1C[C@]2(C[C@H]1C#N)C(=O)Nc1ccccc12 [Example 303] | < 100 nM
35 | CC(C)(C)C[C@H](NC(=O)[C@H](CC1CC1)NC(=O)c1ccc(C(C)(C)C)cc1)C(=O)N1C[C@]2(C[C@H]1C#N)C(=O)Nc1ccccc12 [Example 304] | < 100 nM
36 | CC(C)(C)C[C@H](NC(=O)[C@H](CC1CC1)NC(=O)c1cc(F)c2nn(C3CC3)cc2c1)C(=O)N1C[C@]2(C[C@H]1C#N)C(=O)Nc1ccccc12 [Example 305] | < 100 nM
37 | CC(C)(C)C[C@H](NC(=O)[C@H](CC1CC1)NC(=O)c1cnn(-c2ccc(C(F)(F)F)cc2)c1)C(=O)N1C[C@]2(C[C@H]1C#N)C(=O)Nc1ccccc12 [Example 306] | < 100 nM
38 | C[C@@H](NC(=O)OCc1ccccc1)C(=O)N(C)[C@@H](CC(C)(C)C)C(=O)N1C[C@]2(C[C@H]1C#N)C(=O)Nc1ccccc12 [Example 307] | < 100 nM
39 | C[C@H](NC(=O)C(F)(F)c1ccc(F)cc1)C(=O)N(C)[C@@H](CC(C)(C)C)C(=O)N1C[C@]2(C[C@H]1C#N)C(=O)Nc1ccccc12 [Example 308] | < 100 nM
40 | C[C@H](NC(=O)C12CC(C)(C1)C2)C(=O)N(C)[C@@H](CC(C)(C)C)C(=O)N1C[C@]2(C[C@H]1C#N)C(=O)Nc1ccccc12 [Example 309] | < 100 nM
41 | C[C@H](NC(=O)C12CC3CC(CC(C3)C1)C2)C(=O)N(C)[C@@H](CC(C)(C)C)C(=O)N1C[C@]2(C[C@H]1C#N)C(=O)Nc1ccccc12 [Example 310] | < 100 nM
42 | CC(C)(C)C[C@H](NC(=O)[C@H](CC1CC1)NC(=O)OC1CC1)C(=O)N1C[C@]2(C[C@H]1C#N)C(=O)Nc1ccccc12 [Example 311] | < 100 nM
43 | CC(C)(C)C[C@H](NC(=O)[C@H](CC1CC1)NC(=O)c1cc(F)c(F)c(F)c1)C(=O)N1C[C@]2(C[C@H]1C#N)C(=O)Nc1ccccc12 [Example 312] | < 100 nM
44 | CC(C)(C)C[C@H](NC(=O)[C@H](CC1CC1)NS(=O)(=O)c1ccc(F)cc1)C(=O)N1C[C@]2(C[C@H]1C#N)C(=O)Nc1ccccc12 [Example 313] | < 100 nM
45 | CC(C)(C)C[C@H](NC(=O)[C@H](CC1CC1)NS(=O)(=O)c1cnn(-c2ccc(F)cc2)c1)C(=O)N1C[C@]2(C[C@H]1C#N)C(=O)Nc1ccccc12 [Example 314] | 100 to 1000 nM
46 | CC(C)(C)C[C@H](NC(=O)[C@H](CC1CC1)NC(=O)c1cccc2cc(F)ccc12)C(=O)N1C[C@]2(C[C@H]1C#N)C(=O)Nc1ccccc12 [Example 315] | < 100 nM
47 | CC(C)(C)C[C@H](NC(=O)[C@H](CC1CC1)NC1CCCCC1)C(=O)N1C[C@]2(C[C@H]1C#N)C(=O)Nc1ccccc12 [Example 316] | 100 to 1000 nM
48 | CC(C)(C)C[C@H](NC(=O)[C@H](CC1CC1)NC(=O)C12CC(C)(C1)C2)C(=O)N1C[C@]2(C[C@H]1C#N)C(=O)Nc1ccccc12 [Example 317] | < 100 nM
49 | CC(C)(C)C[C@H](NC(=O)[C@H](CC1CC1)NC(=O)C1CC2CCC1C2)C(=O)N1C[C@]2(C[C@H]1C#N)C(=O)Nc1ccccc12 (stereo partly drawn) [Example 318] | < 100 nM
50 | CC(C)(C)C[C@H](NC(=O)[C@H](CC1CC1)NC(=O)C12CC3CC(CC(C3)C1)C2)C(=O)N1C[C@]2(C[C@H]1C#N)C(=O)Nc1ccccc12 [Example 319] | < 100 nM
51 | CC(C)(C)C[C@H](NC(=O)[C@H](CC1CC1)NC(=O)C1CCC1)C(=O)N1C[C@]2(C[C@H]1C#N)C(=O)Nc1ccccc12 [Example 320] | < 100 nM
52 | CC(C)(C)C[C@H](NC(=O)[C@H](CC1CC1)NC(=O)C1CC2(CCC2)C1)C(=O)N1C[C@]2(C[C@H]1C#N)C(=O)Nc1ccccc12 [Example 321] | < 100 nM
53 | CC(C)(C)C[C@H](NC(=O)[C@H](CC1CC1)NC(=O)C1CCC2(CC1)CC2)C(=O)N1C[C@]2(C[C@H]1C#N)C(=O)Nc1ccccc12 [Example 322] | < 100 nM
54 | CC(C)(C)C[C@H](NC(=O)[C@H](CC1CC1)NC(=O)c1cnn(C2CC2)c1)C(=O)N1C[C@]2(C[C@H]1C#N)C(=O)Nc1ccccc12 [Example 323] | < 100 nM
